Earlier results on eleven compounds are cited in patent publication US20240350374A1, “COMPOSITION AND METHODS OF TREATMENT USING TRANSDERMAL SUPPLEMENTATION” (Xygenyx Inc., priority 2023, published 2024).

Where a SMILES comes first, the peptide text is derived from it.

The conditions of series [1]: compared to α-tocopherol = 1.0.
For series [2] the following is noted: even when dietary intake occurs in equal portions.
Series [3] deals with wide dynamic range neurons in the ventroposterolateral nucleus of the thalamus. The note with it: believed.
The subject of series [4] is skin. The note with it: topical formulations, within four weeks of treatment.
Series [5] has as its system skin. The note with it: topical application, concentrations 0.5-5%.
Series [6] relates to skin. The note with it: as penetration enhancer.
For series [7] the following is noted: in vivo.
For a further series, the system named is rheumatoid arthritis. Conditions: arthritic subjects.
Another series concerns markers of inflammation. The note with it: supplementation, individuals with metabolic syndrome.
In another series the test system is F2-isoprostane. The note with it: large doses of 1600-3200 IU/day.

On to `Cc1c(O)cc2c(c1C)O[C@](C)(CCC[C@H](C)CCC[C@H](C)CCCC(C)C)CC2` [γ-tocopherol], for which the relative biological activity in [1] is listed as 0.1. The “concentration in vivo relative to α-tocopherol” value in [2] was “roughly 10%”. `CCCCCc1cc(O)c2c(c1)OC(C)(C)C1CCC(C)=CC21` (stereo not shown) [THC, Δ-9-tetrahydrocannabinol]: the “power in mediating pain relative to morphine” value in series [3] is on record as “ten times more powerful than morphine”. Regarding `CC[C@H](C)[C@H](NC(=O)[C@H](CC(=O)O)NC(=O)[C@@H](N)CCCCN)C(=O)N[C@@H](CCCNC(N)=O)C(N)=O` [tripeptide-10 citrulline, Tripeptide-10 citrulline] (HELM PEPTIDE1{K.D.I.[Cit].[am]}$$$$V2.0), the improvement of suppleness with skin [4] is recorded as at most 54%. For `C=CCCCCCCCCC(=O)N[C@@H](Cc1ccccc1)C(=O)O` [UP, Undecylenoyl phenylalanine], the “time to skin lightening effects” value in the series with skin [5] is at least 7 days.

On to `CC12CCC(CC1)C(C)(C)O2` [eucalyptol, 1,8-epoxy-p-menthane], for which the “factor of increase of transdermal drug uptake / penetration” value with skin [6] was “more than 10”. For `CC(C)[C@@H]1CC[C@@H](C)C[C@H]1O` [Menthol], the “factor of increase of transdermal drug uptake / penetration” value with skin [6] is at least 10.

As to `Cc1cc(O)c(C)c2c1O[C@](C)(CCC[C@H](C)CCC[C@H](C)CCCC(C)C)CC2` [β-tocopherol], in series [1], the relative biological activity is 0.5.

As for “HGH: hormone comprising a peptide chain that is synthesized in the pituitary gland”, the biological half-life in series [7] was 10-20 minutes. `C=C1CC/C=C(\C)CC[C@@H]2[C@@H]1CC2(C)C` [β-caryophyllene]: in the series with rheumatoid arthritis, the “increases of protein carbonyl groups and myeloperoxidase activity in liver and plasma” value is “eliminated”; the “number of circulating and articular leukocytes” value was “reduced”; the “swelling of joints and lymph nodes” value is “reduced”. Turning to `Cc1cc(O)cc2c1O[C@](C)(CCC[C@H](C)CCC[C@H](C)CCCC(C)C)CC2` [δ-tocopherol], the relative biological activity in [1] was 0.03. Also, in the series with markers of inflammation, the “markers of inflammation in the blood” value was “reduced”. With `Cc1c(C)c2c(c(C)c1O)CC[C@@](C)(CCC[C@H](C)CCC[C@H](C)CCCC(C)C)O2` [α-tocopherol], in the series with F2-isoprostane, the “blood plasma concentration of F2-isoprostane” value was “significantly lower”. Moreover, the “reduction of risk of coronary disease” value (dietary supplementation, doses up to 400 IU/day) was “up to 34%”. Also, the “reduction of risk of developing neurodegenerative diseases (Alzheimer's Syndrome or dementia)” value (dietary supplementation, doses up to 400 IU/day, controlled trials) is at most 24%. In addition, for the setting “in combination with 10-20 mg β-carotene and 400-500 mg vitamin C, doses around 400-500 IU”, the “reduction in the development of age-related cataracts” value is reported as 23%. In addition, in series [1], the relative biological activity is listed as 1.0.
